Where two headings read alike, the source gives them in different places.
Key:
Format in all cases: cell-based, Escherichia coli
E. coli ΔtolC = assay: microbe, parasite or virus in culture; conditions: for Minimum inhibitory concentration (MIC), ΔtolC: without pore
How it was run: (§1)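 Steps: LB overnight culture at 37 °C; resuspension in PBS to OD600 ~1.0; 1/2000 dilution in MHB II; addition to 2-fold serial compound dilutions (duplicate); 18 h shaking incubation at 37 °C; OD600 read, with pre-read subtracted.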

[1] = tested on: wild-type E. coli K-12 str. BW25113; assay: microbe, parasite or virus in culture; conditions: technical duplicate; for MIC: Escherichia coli, BW25113
How it was run: as §1

E. coli EKO-35 = assay: microbe, parasite or virus in culture; conditions: for Fold change of MICs: EKO-35 compared to EKO-35 (reference); for MIC: Escherichia coli, EKO35
How it was run: as §1

EKO-35 araC::mdtBC Pore = assay: MIC susceptibility profiling, porinated efflux platform; conditions: for Fold changes of MICs: EKO-35 araC::mdtBC Pore compared to EKO-35-Pore
How it was run: (§2)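 Strains carry the fhuA ΔC/Δ4L pore integrated between glmS and pstS under a constitutive promoter, with pore activity checked by vancomycin susceptibility. Overnight LB cultures were adjusted in PBS pH 7.4 to OD600 ~1.0 and diluted 1/2000 into MHB II. 2-fold compound titrations were read by OD600 after 18 h at 37 °C.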

EKO-35 araC::macAB Pore = assay: as above; conditions: for Fold changes of MICs: EKO-35 araC::macAB Pore compared to EKO-35-Pore
How it was run: as §2

EKO-35 araC::emrAB Pore = assay: as above; conditions: for Fold changes of MICs: EKO-35 araC::emrAB Pore compared to EKO-35-Pore
How it was run: as §2

EKO-35 araC::mdtEF Pore = assay: as above
How it was run: as §2

EKO-35 araC::acrB Pore = assay: as above; conditions: for Fold changes of MICs: EKO-35 araC::acr-B Pore compared to EKO-35-Pore
How it was run: as §2

[2] = tested on: EKO-35 araC::acrBD408A Pore; assay: as above; conditions: for Fold changes of MICs: EKO-35 araC::acrBD408A Pore compared to EKO-35-Pore
How it was run: as §2

EKO-35 araC::mexCD Pore = assay: as above; conditions: for Fold changes of MICs: EKO-35 araC::mexCD Pore compared to EKO-35-Pore
How it was run: as §2

EKO-35 araC::acrEF Pore = assay: as above
How it was run: as §2

EKO-35 araC::emrKY Pore = assay: as above; conditions: for Fold changes of MICs: EKO-35 araC::emrKY Pore compared to EKO-35-Pore
How it was run: as §2

EKO-35 araC::acrD Pore = assay: as above; conditions: for Fold changes of MICs: EKO-35 araC::acrD Pore compared to EKO-35-Pore
How it was run: as §2

wild-type (WT) K-12-Pore = assay: microbe, parasite or virus in culture; conditions: technical duplicate; for MIC: Escherichia coli
How it was run: as §2

ΔtolC-Pore = assay: microbe, parasite or virus in culture; conditions: for Minimum inhibitory concentration (MIC), Pore ΔtolC: Table 10, with pore
How it was run: as §2

EKO-35 araC::acrBD408A = assay: MIC susceptibility profiling, efflux platform; conditions: for Fold change of MICs: EKO-35 araC::acrBD408A compared to EKO-35
How it was run: as §1

EKO-35 araC::acrEF = assay: MIC susceptibility profiling, efflux platform; conditions: for Fold change of MICs: EKO-35 araC::acrEF compared to EKO-35
How it was run: as §1

EKO-35 araC::mdtBC = assay: MIC susceptibility profiling, efflux platform; conditions: for Fold change of MICs: EKO-35 araC::mdtBC compared to EKO-35
How it was run: as §1

EKO-35-Pore = assay: MIC susceptibility profiling, porinated strain; conditions: for Fold changes of MICs: EKO-35-Pore compared to EKO-35-Pore (reference); for MIC: Escherichia coli
How it was run: as §2

[3] = Table 13A, non-porinated, technical duplicate
[4] = Table 14A, porinated, technical duplicate
[5] = Table 13B, non-porinated, technical duplicate

CO[C@@H]1[C@@H](OC(N)=O)[C@@H](O)[C@H](Oc2ccc3c(O)c(NC(=O)c4ccc(O)c(CC=C(C)C)c4)c(=O)oc3c2C)OC1(C)C [novobiocin]
MIC (E. coli ΔtolC; Escherichia coli, 18 h, read-out: Minimum Inhibitory Concentration, ΔtolC): 0.781 µg/mL
Minimum inhibitory concentration (MIC), ΔtolC (E. coli ΔtolC; Table 10, technical duplicate): 0.781 µg/mL
fold difference in MIC between EKO-35 and ΔtolC (E. coli ΔtolC; ΔtolC mutant more susceptible than EKO-35, Table 10): 4 fold
MIC ([1]; Table 10, without pore, read-out: Minimum inhibitory concentration (MIC), K-12): 200 µg/mL
MIC ([1]; Table 13A, non-porinated, read-out: Minimum Inhibitory Concentration, K-12): 200 µg/mL
Fold change of MICs (E. coli EKO-35): 1 fold
MIC (E. coli EKO-35; Table 10, without pore, technical duplicate, read-out: Minimum inhibitory concentration (MIC), EKO-35): 3.12 µg/mL
MIC (E. coli EKO-35; Table 13A, non-porinated, technical duplicate, read-out: Minimum Inhibitory Concentration, EKO-35): 3.12 µg/mL
Fold changes of MICs (EKO-35 araC::mdtBC Pore): 4 fold
MIC (EKO-35 araC::mdtBC Pore; Escherichia coli, EKO-35 araC::mdtBC Pore, technical duplicate, read-out: Minimum inhibitory concentration): 3.12 µg/mL
Fold changes of MICs (EKO-35 araC::macAB Pore): 1 fold
MIC (EKO-35 araC::macAB Pore; Escherichia coli, EKO-35 araC::macAB Pore, technical duplicate, read-out: Minimum inhibitory concentration): 0.781 µg/mL
Fold changes of MICs (EKO-35 araC::emrAB Pore): 8 fold
MIC (EKO-35 araC::emrAB Pore; Escherichia coli, EKO-35 araC::emrAB Pore, technical duplicate, read-out: Minimum inhibitory concentration): 6.25 µg/mL
Fold changes of MICs (EKO-35 araC::mdtEF Pore; EKO-35 araC::mdtEF Pore compared to EKO-35-Pore): 16 fold
Fold changes of MICs (EKO-35 araC::acrB Pore): 512 fold
Fold changes of MICs [2]: 1 fold
MIC ([2]; Escherichia coli, EKO-35 araC::acrBD408A Pore, technical duplicate, read-out: Minimum inhibitory concentration): 0.391 µg/mL
Fold changes of MICs (EKO-35 araC::mexCD Pore): 4 fold
MIC (EKO-35 araC::mexCD Pore; Escherichia coli, EKO-35 araC::mexCD Pore, technical duplicate, read-out: Minimum inhibitory concentration): 3.12 µg/mL
Fold changes of MICs (EKO-35 araC::acrEF Pore; EKO-35 araC::acrEF Pore compared to EKO-35-Pore): 32 fold
MIC (EKO-35 araC::acrEF Pore; Escherichia coli, Table 14A, porinated, technical duplicate, read-out: Minimum inhibitory concentration, EKO-35 araC::acrEF Pore): 25 µg/mL
Fold changes of MICs (EKO-35 araC::emrKY Pore): 1 fold
MIC (EKO-35 araC::emrKY Pore; Escherichia coli, EKO-35 araC::emrKY Pore, technical duplicate, read-out: Minimum inhibitory concentration): 0.781 µg/mL
Fold changes of MICs (EKO-35 araC::acrD Pore): 32 fold
MIC (EKO-35 araC::acrD Pore; Escherichia coli, Table 14A, porinated, technical duplicate, read-out: Minimum inhibitory concentration, EKO-35 araC::acrD Pore): 25 µg/mL
MIC (wild-type (WT) K-12-Pore; Table 10, with pore, read-out: Minimum inhibitory concentration (MIC), Pore K-12): 12.5 µg/mL
MIC (wild-type (WT) K-12-Pore; Table 14A, porinated, read-out: Minimum inhibitory concentration, K-12 (WT)-Pore): 12.5 µg/mL
MIC (ΔtolC-Pore; Escherichia coli, 18 h, read-out: Minimum inhibitory concentration, ΔtolC-Pore): 0.391 µg/mL
Minimum inhibitory concentration (MIC), Pore ΔtolC (ΔtolC-Pore; technical duplicate): 0.391 µg/mL
Fold change of MICs (EKO-35 araC::acrBD408A): 1 fold
MIC (EKO-35 araC::acrBD408A; Escherichia coli, Table 13B, non-porinated, technical duplicate, read-out: Minimum Inhibitory Concentration, EKO-35 araC::acrBD408A): 3.12 µg/mL
Fold change of MICs (EKO-35 araC::acrEF): 128 fold
Fold change of MICs (EKO-35 araC::mdtBC): 4 fold
efflux pump-mediated resistance vs EKO-35 (EKO-35 araC::mdtBC; MdtBC): conferred resistance
Fold changes of MICs (EKO-35-Pore): 1 fold
MIC (EKO-35-Pore; Table 10, with pore, technical duplicate, read-out: Minimum inhibitory concentration (MIC), Pore EKO-35): 0.781 µg/mL
MIC (EKO-35-Pore; Table 14A, porinated, technical duplicate, read-out: Minimum inhibitory concentration, EKO-35-Pore): 0.781 µg/mL

CC(C)(C)c1cc(C(=O)NNC(=O)Nc2cccc3ccccc23)n(Cc2ccc(F)cc2)n1 [compound 4]
Minimum inhibitory concentration (MIC), ΔtolC (E. coli ΔtolC; Table 10, technical duplicate): 10 µg/mL
Minimum Inhibitory Concentration, ΔtolC (E. coli ΔtolC; [3]): 10 µg/mL
Minimum inhibitory concentration (MIC), K-12 ([1]; Table 10, without pore): 320 µg/mL
Minimum Inhibitory Concentration, K-12 ([1]; Table 13A, non-porinated): 320 µg/mL
Fold change of MICs (E. coli EKO-35): 1 fold
Minimum inhibitory concentration (MIC), EKO-35 (E. coli EKO-35; Table 10, without pore, technical duplicate): 20 µg/mL
Minimum Inhibitory Concentration, EKO-35 (E. coli EKO-35; [3]): 20 µg/mL
susceptibility of EKO-35 to the compound (E. coli EKO-35; synthetic efflux substrates of FIG. 12): susceptible
Fold changes of MICs (EKO-35 araC::mdtBC Pore): 1 fold
Minimum inhibitory concentration (EKO-35 araC::mdtBC Pore; EKO-35 araC::mdtBC Pore, technical duplicate): 2.5 µg/mL
Fold changes of MICs (EKO-35 araC::macAB Pore): 2 fold
Minimum inhibitory concentration (EKO-35 araC::macAB Pore; EKO-35 araC::macAB Pore, technical duplicate): 5 µg/mL
Fold changes of MICs (EKO-35 araC::emrAB Pore): 8 fold
Minimum inhibitory concentration (EKO-35 araC::emrAB Pore; EKO-35 araC::emrAB Pore, technical duplicate): 20 µg/mL
Minimum inhibitory concentration, EKO-35 araC::mdtEF Pore (EKO-35 araC::mdtEF Pore; [4]): 320 µg/mL
Fold changes of MICs (EKO-35 araC::acrB Pore): 128 fold
Minimum inhibitory concentration, EKO-35 araC::acrB Pore (EKO-35 araC::acrB Pore; [4]): 320 µg/mL
Fold changes of MICs [2]: 1 fold
Minimum inhibitory concentration ([2]; EKO-35 araC::acrBD408A Pore, technical duplicate): 2.5 µg/mL
Fold changes of MICs (EKO-35 araC::mexCD Pore): 16 fold
Minimum inhibitory concentration (EKO-35 araC::mexCD Pore; EKO-35 araC::mexCD Pore, technical duplicate): 40 µg/mL
Minimum inhibitory concentration, EKO-35 araC::acrEF Pore (EKO-35 araC::acrEF Pore; [4]): 320 µg/mL
Fold changes of MICs (EKO-35 araC::emrKY Pore): 1 fold
Minimum inhibitory concentration (EKO-35 araC::emrKY Pore; EKO-35 araC::emrKY Pore, technical duplicate): 1.25 µg/mL
Fold changes of MICs (EKO-35 araC::acrD Pore): 4 fold
Minimum inhibitory concentration, EKO-35 araC::acrD Pore (EKO-35 araC::acrD Pore; [4]): 10 µg/mL
Minimum inhibitory concentration (MIC), Pore K-12 (wild-type (WT) K-12-Pore; Table 10, with pore): 320 µg/mL
Minimum inhibitory concentration, K-12 (WT)-Pore (wild-type (WT) K-12-Pore; Table 14A, porinated): 320 µg/mL
Minimum inhibitory concentration (MIC), Pore ΔtolC (ΔtolC-Pore; technical duplicate): 1.25 µg/mL
Minimum inhibitory concentration, ΔtolC-Pore (ΔtolC-Pore; [4]): 1.25 µg/mL
Fold change of MICs (EKO-35 araC::acrBD408A): 1 fold
Minimum Inhibitory Concentration, EKO-35 araC::acrBD408A (EKO-35 araC::acrBD408A; [5]): 20 µg/mL
Fold change of MICs (EKO-35 araC::acrEF): 16 fold
Minimum Inhibitory Concentration, EKO-35 araC::acrEF (EKO-35 araC::acrEF; [3]): 320 µg/mL
Fold change of MICs (EKO-35 araC::mdtBC): 1 fold
Minimum Inhibitory Concentration, EKO-35 araC::mdtBC (EKO-35 araC::mdtBC; [5]): 20 µg/mL
Fold changes of MICs (EKO-35-Pore): 1 fold
Minimum inhibitory concentration (MIC), Pore EKO-35 (EKO-35-Pore; Table 10, with pore, technical duplicate): 2.5 µg/mL
Minimum inhibitory concentration, EKO-35-Pore (EKO-35-Pore; [4]): 2.5 µg/mL

— patent US20230407243A1, “GENETIC PLATFORM TO INVESTIGATE THE FUNCTIONS OF BACTERIAL DRUG EFFLUX PUMPS” (priority 2022, published 2023)
